Patent US20220304992A1, “METHODS OF REJUVENATING AGED TISSUE BY INHIBITING 15-HYDROXYPROSTAGLANDIN DEHYDROGENASE (15-PGDH)” (The Board of Trustees of the Leland Stanford Junior …, priority 2019, published 2022)

Tested on: atrogene and other transcript levels in aged muscles
Experiment: Quantitative RT-PCR of treated aged muscle tissue
Assay type: in vivo, mouse
Source text: We isolated RNA from MuSCs using the RNeasy Micro Kit (Qiagen). For muscle samples, we snap froze the tissue in liquid nitrogen, homogenized muscles in Trizol (Invitrogen) using the FastPrep FP120 homogenizer (MP Biomedicals), and then isolated RNA. We reverse-transcribed cDNA from total mRNA from each sample using the SensiFAST™ cDNA Synthesis Kit (Bioline). We subjected cDNA to RT-PCR using SYBR Green PCR Master Mix (Applied Biosystems) or TaqMan Assays (Applied Biosystems) in an ABI 7900HT Real-Time PCR System (Applied Biosystems). We cycled samples at 95° C. for 10 min and then 40 cycles at 95° C. for 15 s and 60° C. for 1 min. To quantify relative transcript levels, we used 2-ΔΔCt to compare treated and untreated samples and expressed the results relative to Gapdh.
For SYBR Green qRT-PCR, we used the following primer sequences: Gapdh, 30 forward 5′-[…]-3′, reverse 5′-[…]-3′; Hpgd, forward 5′-[…] -3′, reverse 5′-[…]-3′; Ptger1, forward 5′ […]-3′, reverse 5′-[…]-3′, Ptger2, forward 5′-[…]-3′, reverse 5′-[…]-3′, Cox2, forward, 5′-[…]-3′, reverse 5′-[…]-3′; Fbxo32, forward 5′-[…]-3′, reverse 5′-[…]-3′. For murine senescence markers and senescence associated markers we used the previously described primers (6).
TaqMan Assays (Applied Biosystems) were used to quantify Pax7, Myh, p21, Ptger3 and Ptger4 in samples according to the manufacturer instructions with the TaqMan Universal PCR Master Mix reagent kit (Applied Biosystems). Transcript levels were expressed relative to Gapdh levels. For SYBR Green qPCR, Gapdh qPCR was used to normalize input cDNA samples. For Taqman qPCR, multiplex qPCR enabled target signals (FAM) to be normalized individually by their internal Gapdh signals (VIC).
We isolated RNA from MuSCs, myoblasts and myotubes using the RNeasy Kit (Qiagen). Muscle samples were snap frozen in liquid nitrogen, then homogenized in Trizol (Invitrogen) using the FastPrep FP120 homogenizer (MP Biomedicals) before isolating RNA. We reverse-transcribed cDNA from total mRNA from each sample using the SensiFAST™ cDNA Synthesis Kit (Bioline). We subjected cDNA to RT-PCR using SYBR Green PCR Master Mix (Applied Biosystems) or TaqMan Assays (Applied Biosystems) in an ABI 7900HT Real-Time PCR System (Applied Biosystems). […] To quantify relative transcript levels, we used 2-ΔΔCt to compare treated and untreated samples and expressed the results relative to Gapdh. […]
For murine senescence markers and senescence associated markers we used the previously described primers (2). TaqMan Assays (Applied Biosystems) were used to quantify p21, Mstn, Ptger3 and Ptger4 in samples according to the manufacturer instructions with the TaqMan Universal PCR Master Mix reagent kit (Applied Biosystems). […] Mitochondrial copy number was quantified by using method and primers described previously (14).

SMILES: CCCC[S+]([O-])c1sc2nc(-c3cccs3)cc(-c3ccccc3)c2c1N (stereo not shown) [SW033291, 2-(butylsulfinyl)-4-phenyl-6-(thiophen-2-yl)thieno[2,3-b]pyridin-3-amine]
- other aging, inflammatory and autophagy markers (aged mice, SW treatment): no significant changes
- Pgc1α mRNA level (aged muscles, SW treatment): restored to that seen in young muscles
- expression of Fbxo32 (Atrogin1) at the mRNA level (aged muscles, SW treatment): decreased expression
- expression of atrogenes (Atrogin-1, MuRF1, Musa1, Smart) and Traf6 by RT-qPCR (aged muscles, SW vs vehicle): diminished
